The target in assay [1] is T1, Cathepsin K (Homo sapiens, UniProt P43235).
T1 sequence (P43235 115-329): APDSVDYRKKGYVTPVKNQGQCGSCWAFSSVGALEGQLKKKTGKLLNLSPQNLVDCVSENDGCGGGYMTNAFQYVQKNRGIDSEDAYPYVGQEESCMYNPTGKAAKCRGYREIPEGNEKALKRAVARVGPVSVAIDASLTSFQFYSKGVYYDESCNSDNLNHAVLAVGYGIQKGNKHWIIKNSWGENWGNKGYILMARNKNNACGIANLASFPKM
Briefly: Cathepsin K inhibition assay (fluorogenic peptide substrate); selectivity ratio vs cathepsin S. Conditions: ratio of cathepsin K inhibition constant to cathepsin S inhibition constant; Table II. It is filed as biochemical. Summed up: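 Fluorogenic kinetic assay, started with acetyl-Lys-His-Pro-Lys-aminocarbamoylcoumarin at 40 μM final, hydrolysis followed at ex 380/em 450 nm. Apparent inhibition constants from progress curves, converted to competitive inhibition constants. Selectivity expressed as isozyme inhibition constant divided by cathepsin S inhibition constant.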

Assay [2] concerns the target Cathepsin S (Homo sapiens, UniProt P25774). As to the kind of experiment: Cathepsin S inhibition assay (fluorogenic peptide substrate). It counts as biochemical. The settings on record: Table II, compounds of Formula I; read-out: Ki Cat. S. The method in brief:
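Ki values come from nonlinear fitting of inhibited hydrolysis rates, taking free and total inhibitor concentrations as equal. Rates measured as rising fluorescence at 380/450 nm after reaction start with 50 μM final acetyl-HPVK-aminocarbamoylcoumarin.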

pKi: −log10 of the molar value.

Cathepsin S, sequence (P25774 115-331, species assumed): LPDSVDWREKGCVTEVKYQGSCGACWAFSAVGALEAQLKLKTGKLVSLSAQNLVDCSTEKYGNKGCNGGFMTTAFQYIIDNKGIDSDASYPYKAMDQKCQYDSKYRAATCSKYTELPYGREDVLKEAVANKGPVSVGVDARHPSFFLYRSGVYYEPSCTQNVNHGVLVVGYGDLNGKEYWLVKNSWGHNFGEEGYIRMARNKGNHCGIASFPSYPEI

As for `O=C(N[C@@H](CC1CCCCC1)C(=O)NCCNc1ccc(OC(F)(F)F)cc1)c1csc(-c2ccccc2)n1` [Compound 54, 2-Phenyl-thiazole-4-carboxylic acid (S)-{2-cyclohexyl-1-[2-(4-trifluoromethoxy-phenylamino)-ethylcarbamoyl]-ethyl}-amide], in assay [1], the “Selectivity for Cat. S over Cat. K” value was “+ (+, >10)”. The negative logarithm of the Ki (pKi) (as a rule, the negative decadic logarithm of the Ki, by convention in mol/L) in assay [2] is over 7.00.
Turning to `COc1ccc(NCCNC(=O)[C@H](Cc2ccccc2)NC(=O)c2cccc(C#N)c2)cc1` [Compound 55, (S)-3-Cyano-N-{1-[2-(4-methoxy-phenylamino)-ethylcarbamoyl]-2-phenyl-ethyl}-benzamide], in assay [1], the “Selectivity for Cat. S over Cat. K” value is “++ (++, >100)”. In assay [2], the negative logarithm of the Ki (pKi) was over 6.00.
Regarding `COc1ccc(NCCNC(=O)[C@H](Cc2ccccc2)NC(=O)c2cccc(-c3csc(C)n3)c2)cc1` [Compound 56, (S)-N-{1-[2-(4-Methoxy-phenylamino)-ethylcarbamoyl]-2-phenyl-ethyl}-3-(2-methyl-thiazol-4-yl)-benzamide], the “Selectivity for Cat. S over Cat. K” value in assay [1] is listed as “++ (++, >100)”. Moreover, in assay [2], the pKi is over 6.00.
`COc1ccc(NCCNC(=O)[C@H](Cc2ccccc2)NC(=O)Nc2ccccc2)cc1` [Compound 57, (S)-N-[2-(4-Methoxy-phenylamino)-ethyl]-3-phenyl-2-(3-phenyl-ureido)-propionamide]: in assay [1], the “Selectivity for Cat. S over Cat. K” value is “+ (+, >10)”. The pKi in assay [2] was over 6.00.
Regarding `O=C(NCCNc1ccc(OC(F)(F)F)cc1)[C@H](CC1CCCCC1)NC(=O)[C@@H](O)c1ccccc1` [Compound 58, 3-Cyclohexyl-2-(S)-(2-(S)-hydroxy-2-phenyl-acetylamino)-N-[2-(4-trifluoromethoxy-phenylamino)-ethyl]-propionamide], in assay [1], the “Selectivity for Cat. S over Cat. K” value is recorded as “++ (++, >100)”. In addition, the negative-log Ki (pKi) in assay [2] is over 7.00.
Regarding `O=C(N[C@@H](CC1CCCCC1)C(=O)NCCNc1ccc(OC(F)(F)F)cc1)c1onc2ccccc12` [Compound 59, Benzo[c]isoxazole-3-carboxylic acid (S)-{2-cyclohexyl-1-[2-(4-trifluoromethoxy-phenylamino)-ethylcarbamoyl]-ethyl}-amide], the “Selectivity for Cat. S over Cat. K” value in assay [1] is reported as “++ (++, >100)”. Besides, the negative-log Ki (pKi) in assay [2] is over 6.00.
With `O=C(N[C@@H](CC1CCCCC1)C(=O)NCCNc1ccc(OC(F)(F)F)cc1)c1ccc(OC(F)F)cc1` [Compound 60, N-(S)-{2-cyclohexyl-1-[2-(4-trifluoromethoxy-phenylamino)-ethylcarbamoyl]-ethyl}-4-difluoromethoxy-benzamide], the “Selectivity for Cat. S over Cat. K” value in assay [1] is “+ (+, >10)”. For the same compound, the negative-log Ki (pKi) in assay [2] was over 7.00.
On to `CC(C)Oc1ccc(C(=O)N[C@@H](CC2CCCCC2)C(=O)NCCNc2ccc(OC(F)(F)F)cc2)cc1` [Compound 61, N-(S)-{2-cyclohexyl-1-[2-(4-trifluoromethoxy-phenylamino)-ethylcarbamoyl]-ethyl}-4-isopropoxy-benzamide], for which the “Selectivity for Cat. S over Cat. K” value in assay [1] is recorded as “+ (+, >10)”. The pKi in assay [2] was over 6.00.
On to `O=C(N[C@@H](CC1CCCCC1)C(=O)NCCNc1ccc(OC(F)(F)F)cc1)c1ccc(-c2ccccc2)s1` [Compound 62, 5-Phenyl-thiophene-2-carboxylic acid (S)-{2-cyclohexyl-1-[2-(4-trifluoromethoxy-phenylamino)-ethylcarbamoyl]-ethyl}-amide], for which the “Selectivity for Cat. S over Cat. K” value in assay [1] is given as “++ (++, >100)”. The pKi in assay [2] was over 7.00.
As to `COc1ccc(NCCNC(=O)[C@H](Cc2ccccc2)NC(=O)c2cccnc2)cc1` [Compound 63, (S)-N-{1-[2-(4-Methoxy-phenylamino)-ethylcarbamoyl]-2-phenyl-ethyl}-nicotinamide], in assay [1], the “Selectivity for Cat. S over Cat. K” value is recorded as “+ (+, >10)”. Further, in assay [2], the negative logarithm of the Ki (pKi) was over 5.00.
`COc1ccc(NCCNC(=O)[C@H](Cc2ccccc2)NC(=O)c2ccncc2)cc1` [Compound 64, (S)-N-{1-[2-(4-Methoxy-phenylamino)-ethylcarbamoyl]-2-phenyl-ethyl}-isonicotinamide]: the “Selectivity for Cat. S over Cat. K” value in assay [1] was “+ (+, >10)”. In assay [2], the negative logarithm of the Ki (pKi) is over 5.00.
With `O=C(N[C@@H](CC1CCCCC1)C(=O)NCCNc1ccc(OC(F)(F)F)cc1)c1ccc(-c2ccccc2)o1` [Compound 65, 5-Phenyl-furan-2-carboxylic acid (S)-{2-cyclohexyl-1-[2-(4-trifluoromethoxy-phenylamino)-ethylcarbamoyl]-ethyl}-amide], the “Selectivity for Cat. S over Cat. K” value in assay [1] is recorded as “++ (++, >100)”. In addition, in assay [2], the negative-log Ki (pKi) was over 7.00.
As to `COc1ccc(NCCNC(=O)[C@H](Cc2ccc(Oc3ccccc3C)cc2)NC(=O)c2cccc(C)c2)cc1` [Compound 66, (S)-N-[1-[2-(4-Methoxy-phenylamino)-ethylcarbamoyl]-2-(4-o-tolyloxy-phenyl)-ethyl]-3-methyl-benzamide], in assay [1], the “Selectivity for Cat. S over Cat. K” value was “++ (++, >100)”. Besides, the pKi in assay [2] was over 6.00.
As for `O=C(N[C@@H](CC1CCCCC1)C(=O)NCCNc1ccc(OC(F)(F)F)cc1)c1ccc(-c2cnco2)cc1` [Compound 67, N-(S)-{2-cyclohexyl-1-[2-(4-trifluoromethoxy-phenylamino)-ethylcarbamoyl]-ethyl}-4-oxazol-5-yl-benzamide], the “Selectivity for Cat. S over Cat. K” value in assay [1] is listed as “+ (+, >10)”. In addition, the negative logarithm of the Ki (pKi) in assay [2] is over 7.00.
As for `Cc1ccc(-c2ccc(C(=O)N[C@@H](CC3CCCCC3)C(=O)NCCNc3ccc(OC(F)(F)F)cc3)o2)cc1` [Compound 70, 5-p-Tolyl-furan-2-carboxylic acid (S)-{2-cyclohexyl-1-[2-(4-trifluoromethoxy-phenylamino)-ethylcarbamoyl]-ethyl}-amide], in assay [1], the “Selectivity for Cat. S over Cat. K” value is “+++ (+++, >1000)”. Also, the pKi in assay [2] is over 7.00.
As for `Cc1cc(C)nc(N(C)c2cccc(C(=O)N[C@@H](CC3CCCCC3)C(=O)NCCNc3ccc(OC(F)(F)F)cc3)c2)n1` [Compound 71, N-(S)-{2-cyclohexyl-1-[2-(4-trifluoromethoxy-phenylamino)-ethylcarbamoyl]-ethyl}-3-[(4,6-dimethyl-pyrimidin-2-yl)-methyl-amino]-benzamide], the “Selectivity for Cat. S over Cat. K” value in assay [1] is recorded as “++ (++, >100)”. The pKi in assay [2] is over 7.00.
On to `Cc1cc(C)nc(N2CCC(C(=O)N[C@@H](CC3CCCCC3)C(=O)NCCNc3ccc(OC(F)(F)F)cc3)CC2)n1` [Compound 72, 1-(4,6-Dimethyl-pyrimidin-2-yl)-piperidine-4-carboxylic acid (S)-{2-cyclohexyl-1-[2-(4-trifluoromethoxy-phenylamino)-ethylcarbamoyl]-ethyl}-amide], for which the “Selectivity for Cat. S over Cat. K” value in assay [1] was “++ (++, >100)”. The negative logarithm of the Ki (pKi) in assay [2] was over 5.00.
Consider `COc1cc(OC)nc(Oc2cccc(C(=O)N[C@@H](CC3CCCCC3)C(=O)NCCNc3ccc(OC(F)(F)F)cc3)c2)n1` [Compound 73, N-(S)-{2-cyclohexyl-1-[2-(4-trifluoromethoxy-phenylamino)-ethylcarbamoyl]-ethyl}-3-(4,6-dimethoxy-pyrimidin-2-yloxy)-benzamide], for which the “Selectivity for Cat. S over Cat. K” value in assay [1] is “++ (++, >100)”. In assay [2], the pKi was over 7.00.
With `COc1cccc(-c2cccc(C(=O)N[C@@H](CC3CCCCC3)C(=O)NCCNc3ccc(OC(F)(F)F)cc3)c2)c1` [Compound 74, 3′-Methoxy-biphenyl-3-carboxylic acid (S)-{2-cyclohexyl-1-[2-(4-trifluoromethoxy-phenylamino)-ethylcarbamoyl]-ethyl}-amide], the “Selectivity for Cat. S over Cat. K” value in assay [1] is listed as “+++ (+++, >1000)”. In addition, in assay [2], the pKi is over 7.00.
With `CC[C@@H](C(=O)N[C@@H](CCC1CCCCC1)C(=O)NCCNc1ccc(OC)cc1)c1ccccc1` [Compound 75, N-{3-Cyclohexyl-1-(S)-[2-(4-methoxy-phenylamino)-ethylcarbamoyl]-propyl}-2-(R)-phenyl-butyramide], the “Selectivity for Cat. S over Cat. K” value in assay [1] is listed as “+++ (+++, >1000)”. Further, in assay [2], the negative logarithm of the Ki (pKi) was over 7.00.
For `O=C(Cc1cccs1)N[C@@H](CC1CCCCC1)C(=O)NCCNc1ccc(F)cc1` [Compound 76, 3-Cyclohexyl-N-[2-(4-fluoro-phenylamino)-ethyl]-2-(S)-(2-thiophen-2-yl-acetylamino)-propionamide], the “Selectivity for Cat. S over Cat. K” value in assay [1] is on record as “+++ (+++, >1000)”. In addition, the negative-log Ki (pKi) in assay [2] was over 7.00.
In the case of `O=C(Cc1ccsc1)N[C@@H](CC1CCCCC1)C(=O)NCCNc1ccc(F)cc1` [Compound 77, 3-Cyclohexyl-N-[2-(4-fluoro-phenylamino)-ethyl]-2-(S)-(2-thiophen-3-yl-acetylamino)-propionamide], the “Selectivity for Cat. S over Cat. K” value in assay [1] is “++ (++, >100)”. Further, the pKi in assay [2] was over 7.00.
With `COc1ccc(NCCNC(=O)[C@H](Cc2ccccc2)NC(=O)c2cccc(Br)c2)cc1` [Compound 78, (S)-3-Bromo-N-{1-[2-(4-methoxy-phenylamino)-ethylcarbamoyl]-2-phenyl-ethyl}-benzamide], the “Selectivity for Cat. S over Cat. K” value in assay [1] is on record as “+ (+, >10)”. In assay [2], the pKi is over 7.00.
For the compound `CC(=O)N1CCC(C(=O)N[C@@H](CC2CCCCC2)C(=O)NCCNc2ccc(F)cc2)CC1` [Compound 79, 1-Acetyl-piperidine-4-carboxylic acid (S)-{2-cyclohexyl-1-[2-(4-fluoro-phenylamino)-ethylcarbamoyl]-ethyl}-amide], the “Selectivity for Cat. S over Cat. K” value in assay [1] is “+ (+, >10)”. For the same compound, the negative-log Ki (pKi) in assay [2] is over 5.00.

Values taken from US7109243B2 (IRM LLC, priority 2003, dated 2006).
